Read-outs that look alike come from different tables or passages of the source.

One may read the IC50 as the concentration needed to halve the response being measured.

Assay [1] has as its target KRas G12C (Homo sapiens, UniProt P01116, C118S/C51S/C80L/G12C). Description: KRas G12C Modification Assay (LCMS detection of covalent adduct). As to conditions: normalized percent of control, tested at 5 μM concentration for 3 hours. It counts as binding. Put shortly:
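Covalent modification was read by reverse-phase LC/MS of intact protein after compound exposure, each reaction stopped at its time point with 25 mM acetic acid. Unmodified-protein signal, taken as percent of total, was normalised to untreated protein and reported as POC.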

Assay [2] deals with NCI-H358 cells (express KRas G12C), Phospho-ERK. The experiment in a line: Cellular inhibition of KRas G12C: Phospho-ERK in NCI-H358 cells. It counts as cell-based. As to conditions: pERK(Thr202/Tyr204) normalized with GAPDH, NCI-H358 cells, 3 hours, read-out: IC50. Put shortly:
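IC50 derived by 4-parameter fit of GAPDH-normalized pERK(Thr202/Tyr204) signal, as percent of DMSO control. Signal came from in-cell immunodetection with infrared secondaries after 3 h compound exposure of KRas G12C NCI-H358 cells at 0.5% DMSO.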

Take `C=CC(=O)N1CCN(c2nc(OC[C@@H]3CCCN3C)nc3c2CCN(c2cccc4cc(F)ccc24)C3)CC1CC#N` (stereo partly drawn) [Example 259, 2-[4-[7-(6-fluoro-1-naphthyl)-2-[[(2S)-1-methylpyrrolidin-2-yl]methoxy]-6,8-dihydro-5H-pyrido[3,4-d]pyrimidin-4-yl]-1-prop-2-enoyl-piperazin-2 yl]acetonitrile]: the POC result in assay [1] was “C (“C”>50% POC)”. For the same compound, the half-inhibitory concentration (IC50) in assay [2] (Homo sapiens, NCI-H358, 3 h) lay in the range of 0.0001 to 1 µM.

For `C=CC(=O)N1CCN(c2nc(OC[C@@H]3CCCN3C)nc3c2CCN(c2cncc4ccccc24)C3)CC1CC#N` (stereo partly drawn) [Example 260, 2-[4-[7-(4-isoquinolyl)-2-[[(2S)-1-methylpyrrolidin-2-yl]methoxy]-6,8-dihydro-5H-pyrido[3,4-d]pyrimidin-4-yl]-1-prop-2-enoyl-piperazin-2-yl]acetonitrile], the POC result in assay [1] was “C (“C”>50% POC)”. The half-inhibitory concentration (IC50) in assay [2] (Homo sapiens, NCI-H358, 3 h) lay in the range of 0.0001 to 1 µM.

Turning to `C=C(C)C(=O)N1CCN(c2nc(OC[C@@H]3CCCN3C)nc3c2CCN(c2cccc4ccccc24)C3)CC1CC#N` (stereo partly drawn) [Example 261, 2-[1-(2-methylprop-2-enoyl)-4-[2-[[(2S)-1-methylpyrrolidin-2-yl]methoxy]-7-(1-naphthyl)-6,8-dihydro-5H-pyrido[3,4-d]pyrimidin-4-yl]piperazin-2-yl]acetonitrile], in assay [1], the POC result is “A (“A”≤25% POC)”. For the same compound, the IC50 in assay [2] (Homo sapiens, NCI-H358, 3 h) is greater than 1 µM.

`C=CC(=O)N1CCN(c2nc(OC[C@@H]3CCCN3C)nc3c2CCN(c2cccc4cnccc24)C3)CC1CC#N` (stereo partly drawn) [Example 262, 2-[4-[7-(5-isoquinolyl)-2-[[(2S)-1-methylpyrrolidin-2-yl]methoxy]-6,8-dihydro-5H-1-pyrido[3,4-d]pyrimidin-4-yl]-1-prop-2-enoyl-piperazin-2-yl]acetonitrile]: in assay [1], the POC entry is “A (“A”≤25% POC)”. Besides, the IC50 in assay [2] (Homo sapiens, NCI-H358, 3 h) was greater than 1 µM.

Regarding `C/C=C/C(=O)N1CCN(c2nc(OC[C@@H]3CCCN3C)nc3c2CCN(c2cccc4ccccc24)C3)CC1CC#N` (stereo partly drawn) [Example 263, 2-[1-[(E)-but-2-enoyl]-4-[2-[[(2S)-1-methylpyrrolidin-2-yl]methoxy]-7-(1-naphthyl)-6,8-dihydro-5H-pyrido[3,4-d]pyrimidin-4-yl]piperazin-2-yl]acetonitrile], the POC entry in assay [1] is given as “C (“C”>50% POC)”. The IC50 in assay [2] (Homo sapiens, NCI-H358, 3 h) is 0.0001 to 1 µM.

Take `C=CC(=O)N1CCN(c2nc(OC[C@@H]3CCCN3C)nc3c2CCN(c2cccc4ncccc24)C3)CC1CC#N` (stereo partly drawn) [Example 264, 2-[4-[2-[[(2S)-1-methylpyrrolidin-2-yl]methoxy]-7-(5-quinolyl)-6,8-dihydro-5H-pyrido[3,4-d]pyrimidin-4-yl]-1-prop-2-enoyl-piperazin-2-yl]acetonitrile]: the POC result in assay [1] was “C (“C”>50% POC)”. In assay [2] (Homo sapiens, NCI-H358, 3 h), the IC50 is greater than 1 µM.

For `C=CC(=O)N1CCN(c2nc(OC[C@@H]3CCCN3C)nc3c2CCN(c2cccc(C)c2C(F)(F)F)C3)CC1CC#N` (stereo partly drawn) [Example 265, 2-(1-acryloyl-4-(7-(3-methyl-2-(trifluoromethyl)phenyl)-2-(((S)-1-methylpyrrolidin-2-yl)methoxy)-5,6,7,8-tetrahydropyrido[3,4-d]pyrimidin-4-yl)piperazin-2-yl)acetonitrile], the POC entry in assay [1] was “C (“C”>50% POC)”. The IC50 in assay [2] (Homo sapiens, NCI-H358, 3 h) lay in the range of 0.0001 to 1 µM.

In the case of `C=CC(=O)N1CCN(c2nc(OC[C@@H]3CCCN3CCOC)nc3c2CCN(c2cccc4ccccc24)C3)CC1CC#N` (stereo partly drawn) [Example 266, 2-(1-acryloyl-4-(2-(((S)-1-(2-methoxyethyl)pyrrolidin-2-yl)methoxy)-7-(naphthalen-1-yl)-5,6,7,8-tetrahydropyrido[3,4-d]pyrimidin-4-yl)piperazin-2-yl)acetonitrile], the POC entry in assay [1] is “C (“C”>50% POC)”. For the same compound, in assay [2] (Homo sapiens, NCI-H358, 3 h), the IC50 was 0.0001 to 1 µM.

`C=CC(=O)N1CCN(c2nc(OC[C@H]3CCCN3C)nc3c2CCN(c2cccc4ccccc24)C3)C[C@@H]1CC#N` [Example 267, 2-((S)-1-acryloyl-4-(2-(((R)-1-methylpyrrolidin-2-yl)methoxy)-7-(naphthalen-1-yl)-5,6,7,8-tetrahydropyrido[3,4-d]pyrimidin-4-yl)piperazin-2-yl)acetonitrile]: the POC result in assay [1] is given as “C (“C”>50% POC)”. For the same compound, in assay [2] (Homo sapiens), the IC50 was 0.0001 to 1 µM.

For `C=CC(=O)N1CCN(c2nc(OC[C@@H]3C[C@@H](OC)CN3C)nc3c2CCN(c2cccc4ccccc24)C3)CC1CC#N` (stereo partly drawn) [Example 268, 2-(1-acryloyl-4-(2-(((2S,4R)-4-methoxy-1-methylpyrrolidin-2-yl)methoxy)-7-(naphthalen-1-yl)-5,6,7,8-tetrahydropyrido[3,4-d]pyrimidin-4-yl)piperazin-2-yl)acetonitrile], in assay [1], the POC entry is listed as “C (“C”>50% POC)”. Moreover, the IC50 in assay [2] (Homo sapiens, NCI-H358, 3 h) fell in the range of 0.0001 to 1 µM.

As to `C=CC(=O)N1CCN(c2nc(OCC(C)(C)N(C)C)nc3c2CCN(c2cccc4ccccc24)C3)CC1CC#N` (stereo not shown) [Example 269, 2-(1-acryloyl-4-(2-(2-(dimethylamino)-2-methylpropoxy)-7-(naphthalen-1-yl)-5,6,7,8-tetrahydropyrido[3,4-d]pyrimidin-4-yl)piperazin-2-yl)acetonitrile], in assay [1], the POC result is “C (“C”>50% POC)”. In addition, the IC50 in assay [2] (Homo sapiens, NCI-H358, 3 h) was 0.0001 to 1 µM.

`C=CC(=O)N1CCN(c2nc(OC[C@H]3CN(C)CCO3)nc3c2CCN(c2cccc4ccccc24)C3)CC1CC#N` (stereo partly drawn) [Example 270, 2-(1-acryloyl-4-(2-(((R)-4-methylmorpholin-2-yl)methoxy)-7-(naphthalen 1-yl)-5,6,7,8-tetrahydropyrido[3,4-d]pyrimidin-4-yl)piperazin-2-yl)acetonitrile]: the POC result in assay [1] is recorded as “C (“C”>50% POC)”. Further, the IC50 in assay [2] (Homo sapiens, NCI-H358, 3 h) lay within 0.0001 to 1 µM.

As to `C=CC(=O)N1CCN(c2nc(OC[C@@H]3CN(C)CCO3)nc3c2CCN(c2cccc4ccccc24)C3)CC1CC#N` (stereo partly drawn) [Example 271, 2-(1-acryloyl-4-(2-(((S)-4-methylmorpholin-2-yl)methoxy)-7-(naphthalen-1-yl)-5,6,7,8-tetrahydropyrido[3,4-d]pyrimidin-4-yl)piperazin-2-yl)acetonitrile], the POC entry in assay [1] is “C (“C”>50% POC)”. Moreover, the IC50 in assay [2] (Homo sapiens, NCI-H358, 3 h) fell in the range of 0.0001 to 1 µM.

On to `C=CC(=O)N1CCN(c2nc(OC[C@@H]3COCCN3C)nc3c2CCN(c2cccc4ccccc24)C3)CC1CC#N` (stereo partly drawn) [Example 272, 2-(1-acryloyl-4-(2-(((S)-4-methylmorpholin-3-yl)methoxy)-7-(naphthalen-1-yl)-5,6,7,8-tetrahydropyrido[3,4-d]pyrimidin-4-yl)piperazin-2-yl)acetonitrile], for which the POC result in assay [1] is given as “C (“C”>50% POC)”. Moreover, the IC50 in assay [2] (Homo sapiens, NCI-H358, 3 h) was 0.0001 to 1 µM.

As to `C=CC(=O)N1CCN(c2nc(OC[C@H]3COCCN3C)nc3c2CCN(c2cccc4ccccc24)C3)CC1CC#N` (stereo partly drawn) [Example 273, 2-(1-acryloyl-4-(2-(((R)-4-methylmorpholin-3-yl)methoxy)-7-(naphthalen-1-yl)-5,6,7,8-tetrahydropyrido[3,4-d]pyrimidin-4-yl)piperazin-2-yl)acetonitrile], the POC result in assay [1] is “C (“C”>50% POC)”. In assay [2] (Homo sapiens, NCI-H358, 3 h), the IC50 was greater than 1 µM.

As for `C=CC(=O)N1CCN(c2nc(OC[C@H]3CCCN3C)nc3c2CCN(c2cccc(F)c2C(F)(F)F)C3)C[C@@H]1CC#N` [Example 274, 2-((S)-1-acryloyl-4-(7-(3-fluoro-2-(trifluoromethyl)phenyl)-2-(((R)-1-methylpyrrolidin-2-yl)methoxy)-5,6,7,8-tetrahydropyrido[3,4-d]pyrimidin-4-yl)piperazin-2-yl)acetonitrile], the POC result in assay [1] was “C (“C”>50% POC)”. The IC50 in assay [2] (Homo sapiens, NCI-H358, 3 h) lay within 0.0001 to 1 µM.

As to `C=CC(=O)N1CCN(c2nc(OC[C@@H]3CCCN3C)nc3c2CCN(c2c(F)cccc2C(F)(F)F)C3)CC1CC#N` (stereo partly drawn) [Example 275, 2-(1-acryloyl-4-(7-(2-fluoro-6-(trifluoromethyl)phenyl)-2-(((S)-1-methylpyrrolidin-2-yl)methoxy)-5,6,7,8-tetrahydropyrido[3,4-d]pyrimidin-4-yl)piperazin-2-yl)acetonitrile], in assay [1], the POC result is given as “C (“C”>50% POC)”. In addition, in assay [2] (Homo sapiens, NCI-H358, 3 h), the 50% inhibitory concentration (IC50) lay in the range of 0.0001 to 1 µM.

For the compound `C=CC(=O)N1CCN(c2nc(OC[C@@H]3CCCN3C)nc3c2CCN(c2ccc(F)cc2C(F)(F)F)C3)CC1CC#N` (stereo partly drawn) [Example 276, 2-(1-acryloyl-4-(7-(4-fluoro-2-(trifluoromethyl)phenyl)-2-(((S)-1-methylpyrrolidin-2-yl)methoxy)-5,6,7,8-tetrahydropyrido[3,4-d]pyrimidin-4-yl)piperazin-2-yl)acetonitrile], in assay [1], the POC result is “C (“C”>50% POC)”. In addition, the IC50 in assay [2] (Homo sapiens, NCI-H358, 3 h) is 0.0001 to 1 µM.

Consider `C=CC(=O)N1CCN(c2nc(OC[C@@H]3CCCN3C)nc3c2CCN(c2cccc(Cl)c2C(F)(F)F)C3)CC1CC#N` (stereo partly drawn) [Example 277, 2-(1-acryloyl-4-(7-(3-chloro-2-(trifluoromethyl)phenyl)-2-(((S)-1-methylpyrrolidin-2-yl)methoxy)-5,6,7,8-tetrahydropyrido[3,4-d]pyrimidin-4-yl)piperazin-2-yl)acetonitrile], for which the POC entry in assay [1] was “C (“C”>50% POC)”. The IC50 in assay [2] (Homo sapiens, NCI-H358, 3 h) is 0.0001 to 1 µM.

Turning to `C=CC(=O)N1CCN(c2nc(OC[C@@H]3CCCN3C)nc3c2CCN(c2ccnc4ccccc24)C3)CC1CC#N` (stereo partly drawn) [Example 278, 2-(1-acryloyl-4-(2-(((S)-1-methylpyrrolidin-2-yl)methoxy)-7-(quinolin-4-yl)-5,6,7,8-tetrahydropyrido[3,4-d]pyrimidin-4-yl)piperazin-2-yl)acetonitrile], the POC entry in assay [1] (5 µM) is recorded as “C (“C”>50% POC)”. Further, the half-maximal inhibitory concentration (IC50) in assay [2] lay in the range of 0.0001 to 1 µM.

The record behind these values is patent US10125134B2 (Mirati Therapeutics, Inc., priority 2016, dated 2018).
